Laboratory results published in EP3807270B1, “NOVEL HETEROARYL HETEROCYCLYL COMPOUNDS FOR THE TREATMENT OF AUTOIMMUNE DISEASE” (F. Hoffmann-La Roche AG, priority 2018, dated 2019).

Each compound was assayed against T1, human TLR8 (Homo sapiens, UniProt Q9NR97) (assay: HEK293-Blue-hTLR-8 cells assay (SEAP reporter, R848 stimulation)). Settings: HEK293-Blue-hTLR8 cells, R848, 20 hrs; read-out: HEK/hTLR8 IC50.
T1 construct: host or cells: HEK293 (HEK-Blue)
T1 sequence (Q9NR97 27-1041): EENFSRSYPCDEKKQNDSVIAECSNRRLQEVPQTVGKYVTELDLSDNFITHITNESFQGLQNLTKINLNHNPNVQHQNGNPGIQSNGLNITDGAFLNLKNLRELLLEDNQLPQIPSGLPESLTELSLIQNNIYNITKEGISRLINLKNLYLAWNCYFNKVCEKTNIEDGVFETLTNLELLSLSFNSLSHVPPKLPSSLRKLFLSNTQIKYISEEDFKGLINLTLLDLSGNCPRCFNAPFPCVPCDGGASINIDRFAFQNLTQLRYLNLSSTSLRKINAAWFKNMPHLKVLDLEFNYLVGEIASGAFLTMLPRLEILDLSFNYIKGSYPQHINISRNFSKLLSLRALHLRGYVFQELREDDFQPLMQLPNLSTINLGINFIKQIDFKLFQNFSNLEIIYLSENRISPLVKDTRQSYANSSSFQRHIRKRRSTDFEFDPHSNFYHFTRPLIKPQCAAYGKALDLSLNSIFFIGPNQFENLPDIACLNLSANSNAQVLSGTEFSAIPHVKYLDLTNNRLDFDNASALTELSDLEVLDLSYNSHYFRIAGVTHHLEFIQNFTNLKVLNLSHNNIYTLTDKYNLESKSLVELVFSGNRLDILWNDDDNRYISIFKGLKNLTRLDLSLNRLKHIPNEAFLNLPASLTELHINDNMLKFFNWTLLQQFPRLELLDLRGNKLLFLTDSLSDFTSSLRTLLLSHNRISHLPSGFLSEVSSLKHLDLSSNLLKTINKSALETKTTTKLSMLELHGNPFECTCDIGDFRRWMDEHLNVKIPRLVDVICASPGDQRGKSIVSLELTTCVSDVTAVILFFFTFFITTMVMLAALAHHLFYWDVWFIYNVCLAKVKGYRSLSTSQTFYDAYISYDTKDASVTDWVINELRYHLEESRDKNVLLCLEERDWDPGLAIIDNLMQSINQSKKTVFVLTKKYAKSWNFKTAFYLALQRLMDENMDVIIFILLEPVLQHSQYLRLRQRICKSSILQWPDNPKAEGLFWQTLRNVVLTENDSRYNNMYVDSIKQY
Type: cell-based
Description: A stable HEK293-Blue-hTLR-8 cell line was purchased from InvivoGen (Cat.#: hkb-htlr8, San Diego, California, USA). These cells were originally designed for studying the stimulation of human TLR8 by monitoring the activation of NF-κB. A SEAP (secreted embryonic alkaline phosphatase) reporter gene was placed under the control of the IFN-β minimal promoter fused to five NF-κB and AP-1-binding sites. The SEAP was induced by activating NF-κB and AP-1 via stimulating HEK-Blue hTLR8 cells with TLR8 ligands. Therefore, the reporter expression was declined by TLR8 antagonist under the stimulation of a ligand, such as R848, for incubation of 20 hrs. The cell culture supernatant SEAP reporter activity was determined using QUANTI-Blue™ kit (Cat.#: rep-qb1, Invivogen, San Diego, Ca, USA) at a wavelength of 640 nm, a detection medium that turns purple or blue in the presence of alkaline phosphatase.
HEK293-Blue-hTLR8 cells were incubated at a density of 250,000-450,000 cells/mL in a volume of 170 µL in a 96-well plate in Dulbecco's Modified Eagle's medium (DMEM) containing 4.5 g/L glucose, 50 U/mL penicillin, […], […], 2 mM L-glutamine, 10% (v/v) heat-inactivated fetal bovine serum with addition of 20 µL test compound in a serial dilution in the presence of final DMSO at 1% and 10 µL of 60uM R848 in above DMEM, perform incubation under 37 °C in a CO2 incubator for 20 hrs. Then 20 µL of the supernatant from each well was incubated with 180 µL Quanti-blue substrate solution at 37°C for 2 hrs and the absorbance was read at 620-655 nm using a spectrophotometer. The signaling pathway that TLR8 activation leads to downstream NF-κB activation has been widely accepted, and therefore similar reporter assay was modified for evaluating TLR8 antagonist.

SMILES | IC50 [nM]
C[C@@H]1CN(c2ccc(C#N)c3ncccc23)C[C@H](CN2CCN(c3ccc4c(c3)CCNC4)CC2)O1 [Example 5, 5-[(2R,6S)-2-methyl-6-[[4-(1,2,3,4-tetrahydroisoquinolin-6-yl)piperazin-1-yl]methyl]morpholin-4-yl]quinoline-8-carbonitrile] | 20
C[C@@H]1CN(c2ccc(C#N)c3ncccc23)C[C@H](CN2CCN(c3ccc4c(n3)CCNC4)C[C@@H](O)C2)O1 (single isomer, unassigned) [Example 35B] | 23
C[C@@H]1CN(c2ccc(C#N)c3ncccc23)C[C@H](CN2CC3(C2)CN(c2ccc4c(n2)CNCC4)CCO3)O1 [Example 45, 5-[(2R,6S)-2-methyl-6-[[8-(5,6,7,8-tetrahydro-1,7-naphthyridin-2-yl)-5-oxa-2,8-diazaspiro[3.5]nonan-2-yl]methyl]morpholin-4-yl]quinoline-8-carbonitrile] | 10
C[C@@H]1CN(c2ccc(C#N)c3ncccc23)C[C@H](CN2CC3(CCN3c3ccc4c(n3)CCNC4)C2)O1 [Example 36, 5-[(2R,6S)-2-methyl-6-[[1-(5,6,7,8-tetrahydro-1,6-naphthyridin-2-yl)-1,6-diazaspiro[3.3]heptan-6-yl]methyl]morpholin-4-yl]quinoline-8-carbonitrile] | 43
CC1NCc2ncc(N3CCN(C[C@H]4CN(c5ccc(C#N)c6ncccc56)C[C@@H](C)O4)CC3)cc21 (stereo partly drawn) [Example 41, 5-[(2R,6S)-2-methyl-6-[[4-(5-methyl-6,7-dihydro-5H-pyrrolo[3,4-b]pyridin-3-yl)piperazin-1-yl]methyl]morpholin-4-yl]quinoline-8-carbonitrile] | 17
C[C@@H]1CN(c2ccc(C#N)c3ncccc23)C[C@H](CN2CCN(c3ccc4c(c3)C(O)CNC4)CC2)O1 (stereo partly drawn) [Example 22, 5-[(2S,6R)-2-[[4-(4-hydroxy-1,2,3,4-tetrahydroisoquinolin-6-yl)piperazin-1-yl]methyl]-6-methyl-morpholin-4-yl]quinoline-8-carbonitrile] | 19
C[C@@H]1CN(c2ccc(C#N)c3ncccc23)C[C@H](CN2CCN(c3ccc4c(n3)CNC4)CC2)O1 [Example 30, 5-[(2S,6R)-2-[[4-(6,7-dihydro-5H-pyrrolo[3,4-b]pyridin-2-yl)piperazin-1-yl]methyl]-6-methyl-morpholin-4-yl] quinoline-8-carbonitrile] | 7
C[C@@H]1CN(c2ccc(C#N)c3ncccc23)C[C@H](CN2CCN(c3ncc4c(n3)CNCC4)CC2)O1 [Example 12, 5-[(2R,6S)-2-methyl-6-[[4-(5,6,7,8-tetrahydropyrido[3,4-d]pyrimidin-2-yl)piperazin-1-yl]methyl]morpholin-4-yl]quinoline-8-carbonitrile] | 5
C[C@@H]1CN(c2ccc(C#N)c3ncccc23)C[C@H](CN2CCN(c3nc4c(s3)CNCC4)CC2)O1 [Example 31, 5-[(2R,6S)-2-methyl-6-[[4-(4,5,6,7-tetrahydrothiazolo[5,4-c]pyridin-2-yl)piperazin-1-yl]methyl]morpholin-4-yl]quinoline-8-carbonitrile] | < 3
C[C@@H]1CN(c2ccc(C#N)c3ncccc23)C[C@H](CN2CCN(c3ncc4c(n3)CNC4)CC2)O1 [Example 11, 5-[(2S,6R)-2-[[4-(6,7-dihydro-5Hpyrrolo[3,4-d]pyrimidin-2-yl)piperazin-1-yl]methyl]-6-methyl-morpholin-4-yl]quinoline-8-carbonitrile] | 8
C[C@@H]1CN(c2ccc(C#N)c3ncccc23)C[C@H](CN2CCN(c3ccc4c(c3)CNC4)[C@@H](CO)C2)O1 [Example 4, 5-[(2S,6R)-2-[[(3R)-3-(hydroxymethyl)-4-isoindolin-5-yl-piperazin-1-yl]methyl]-6-methyl-morpholin-4-yl]quinoline-8-carbonitrile] | 27
C[C@@H]1CN(c2ccc(C#N)c3ncccc23)C[C@H](CN2CCN(c3ccc4c(n3)CCNC4)C[C@H](O)C2)O1 (single isomer, unassigned) [Example 35A] | 24
C[C@@H]1CN(c2ccc(C#N)c3ncsc23)C[C@H](CN2CCN(c3cnc4c(c3)CNC4)CC2)O1 [Example 8, 7-[(2S,6R)-2-[[4-(6,7-dihydro-5H-pyrrolo[3,4-b]pyridin-3-yl)piperazin-1-yl]methyl]-6-methyl-morpholin-4-yl]-1,3-benzothiazole-4-carbonitrile] | < 3
C[C@@H]1CN(c2ccc(C#N)c3ncccc23)C[C@H](CN2CC3(C2)CN(c2cnc4c(c2)CCNC4)CCO3)O1 [Example 46, 5-[(2R,6S)-2-methyl-6-[[8-(5,6,7,8-tetrahydro-1,7-naphthyridin-3-yl)-5-oxa-2,8-diazaspiro[3.5]nonan-2-yl]methyl]morpholin-4-yl]quinoline-8-carbonitrile] | 9

Continued, values first:

IC50 [nM] | SMILES
142 | COc1ccc(N2CCN(C[C@H]3CN(c4ccc(C#N)c5ncccc45)C[C@@H](C)O3)CC2)cc1 [Example R1, 5-[(2S,6R)-2-[[4-(4-methoxyphenyl)piperazin-1-yl]methyl]-6-methyl-morpholin-4-yl]quinoline-8-carbonitrile, reference compound]
10 | C[C@@H]1CN(c2ccc(C#N)c3ncccc23)C[C@H](CN2CCN(c3ncnc4c3CNCC4)CC2)O1 [Example 61, 5-[(2R,6S)-2-methyl-6-[[4-(5,6,7,8-tetrahydropyrido[4,3-d]pyrimidin-4-yl)piperazin-1-yl]methyl]morpholin-4-yl]quinoline-8-carbonitrile]
4 | C[C@@H]1CN(c2ccc(C#N)c3ncccc23)C[C@H](CN2CCN(c3cc4c(cn3)CCN[C@@H]4C)CC2)O1 (single isomer, unassigned) [Example 74]
16 | C[C@@H]1CN(c2ccc(C#N)c3ncccc23)C[C@H](CN2C[C@H]3CN(c4ccc5c(n4)CCNC5)CC[C@H]32)O1 (single isomer, unassigned) [Example 55]
5 | C[C@@H]1CN(c2ccc(C#N)c3ncccc23)C[C@H](CN2CCN(c3cc4c(cn3)C[C@H](C)NC4)CC2)O1 (single isomer, unassigned) [Example 76]
15 | COC1CNCc2ccc(N3CCN(C[C@H]4CN(c5ccc(C#N)c6ncccc56)C[C@@H](C)O4)CC3)cc21 (stereo partly drawn) [Example 58, 5-[(2S,6R)-2-[[4-(4-methoxy-1,2,3,4-tetrahydroisoquinolin-6-yl)piperazin-1-yl]methyl]-6-methyl-morpholin-4-yl]quinoline-8-carbonitrile]
4 | C[C@@H]1CN(c2ccc(C#N)c3ncccc23)C[C@H](CN2CCN(c3cc4c(cn3)CCN[C@H]4C)CC2)O1 (single isomer, unassigned) [Example 75]
5 | C[C@@H]1CN(c2ccc(C#N)c3ncccc23)C[C@H](CN2CCN(c3ccc4c(n3)CNCC4)CC2)O1 [Example 69, 5-[(2R,6S)-2-methyl-6-[[4-(5,6,7,8-tetrahydro-1,7-naphthyridin-2-yl)piperazin-1-yl]methyl]morpholin-4-yl]quinoline-8-carbonitrile]
20 | C[C@@H]1CN(c2ccc(C#N)c3ncccc23)C[C@H](CN2CCN(c3cnc4c(c3)CN[C@H]4C)CC2)O1 (single isomer, unassigned) [Example 67]
